Reference: ChEMBL document CHEMBL1201862, “PubChem BioAssay data set” (2004)
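Protocol summary: plate cells (96-well), add compound at 5 concentrations, incubate 48 h, interpolate endpoints linearly. The concentration for 50% growth inhibition is given as GI50.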 Calls of active or inactive are those of the source. Rule as the data show it: active = GI50 up to about 1.1 µM and inactive = higher.

Assays:
Assay in all cases: NCI-60 cell line screen, 48 h
[1] = system: KM12
[2] = system: NCI-H460
[3] = system: EKVX
[4] = system: HCC 2998
[5] = system: RPMI-8226
[6] = system: SN12C
[7] = system: DU-145
[8] = system: U-251
[9] = system: MDA-MB-231
[10] = system: A549
[11] = system: OVCAR-4
[12] = system: NCI-H23
[13] = system: ACHN
[14] = system: SF-539
[15] = system: Hs-578T
[16] = system: OVCAR-3
[17] = system: TK-10
[18] = system: SK-MEL-5
[19] = system: MDA-N
[20] = system: HOP-92

Structure (SMILES) | GI50 [1] | GI50 [2] | GI50 [3] | GI50 [4] | GI50 [5] | GI50 [6] | GI50 [7] | GI50 [8] | GI50 [9] | GI50 [10] | GI50 [11] | GI50 [12] | GI50 [13] | GI50 [14] | GI50 [15] | GI50 [16] | GI50 [17] | GI50 [18] | GI50 [19] | GI50 [20]
C=C1C(=O)O[C@H]2C1C[C@@H](O)/C(C)=C/CC[C@@]1(C)O[C@H]21 (some centres not stated) | > 100 µM (inactive) | 22.4 µM (inactive) | 12.2 µM (inactive) | 33.1 µM (inactive) | 4.76 µM (inactive) | 29.2 µM (inactive) | 20.7 µM (inactive) | 24.4 µM (inactive) | 18.6 µM (inactive) | > 55.1 µM (inactive) | 11.4 µM (inactive) | 13.6 µM (inactive) | 9.27 µM (inactive) | 19.9 µM (inactive) | 31.3 µM (inactive) | 3.27 µM (inactive) | 12 µM (inactive) | 16.1 µM (inactive) | 10.3 µM (inactive) | 8.89 µM (inactive)
Cc1cc(CC(O)(C(F)(F)F)C(F)(F)F)cc(CC(O)(C(F)(F)F)C(F)(F)F)n1 | 2.27 µM (inactive) | 2.04 µM (inactive) | 2.89 µM (inactive) | 4.23 µM (inactive) | 1.61 µM (inactive) | 3.1 µM (inactive) | 2.74 µM (inactive) | 3.3 µM (inactive) | 3.23 µM (inactive) | 3.3 µM (inactive) | 3.47 µM (inactive) | 2.51 µM (inactive) | 2.79 µM (inactive) | 3.43 µM (inactive) | 2.67 µM (inactive) | 1.01 µM (active) | 4.7 µM (inactive) | 1.72 µM (inactive) | 3.88 µM (inactive) | 2.55 µM (inactive)
COC(=O)c1cc(C)ccc1C1CN=NC12Cc1cccc(C)c1C2=O (configuration not stated) | 26.2 µM (inactive) | 26.2 µM (inactive) | 23 µM (inactive) | 37.9 µM (inactive) | 16.8 µM (inactive) | 43.9 µM (inactive) | 42.5 µM (inactive) | 48.9 µM (inactive) | 25.6 µM (inactive) | 31.7 µM (inactive) | 25.5 µM (inactive) | 42.7 µM (inactive) | 28.2 µM (inactive) | 51.6 µM (inactive) | 28.6 µM (inactive) | 36.1 µM (inactive) | 71.6 µM (inactive) | 18 µM (inactive) | 34.8 µM (inactive) | 30.5 µM (inactive)
COc1ccc(C2=CN3CCC[C@H]3C=C2c2cc(O)c(OC)c(OC)c2)cc1OC | 0.00337 µM (active) | 0.00316 µM (active) | 0.00608 µM (active) | 0.00482 µM (active) | 0.00519 µM (active) | 0.00403 µM (active) | 0.00398 µM (active) | 0.00416 µM (active) | 0.00631 µM (active) | 0.00394 µM (active) | 0.00286 µM (active) | 0.00378 µM (active) | 0.00302 µM (active) | 0.00505 µM (active) | 0.00539 µM (active) | 0.00615 µM (active) | 0.00859 µM (active) | 0.0038 µM (active) | 0.00337 µM (active) | 0.0038 µM (active)
COc1ccc(/C(Br)=C2\OC(=O)c3ccccc32)cc1 | > 10 µM (inactive) | > 10 µM (inactive) | > 10 µM (inactive) | > 10 µM (inactive) | > 10 µM (inactive) | > 10 µM (inactive) | > 10 µM (inactive) | > 10 µM (inactive) | > 10 µM (inactive) | > 10 µM (inactive) | > 10 µM (inactive) | > 10 µM (inactive) | > 10 µM (inactive) | > 10 µM (inactive) | > 10 µM (inactive) | > 10 µM (inactive) | > 10 µM (inactive) | > 10 µM (inactive) | > 10 µM (inactive) | > 10 µM (inactive)
CC(=O)c1ccc2c(c1)C(=O)c1sc(C(C)=O)cc1C2=O | 1.01 µM (active) | 1.37 µM (inactive) | 1.18 µM (inactive) | 3.17 µM (inactive) | 1.74 µM (inactive) | 0.578 µM (active) | 1.01 µM (active) | 1.56 µM (inactive) | 1.23 µM (inactive) | 2.59 µM (inactive) | 1.73 µM (inactive) | 1.09 µM (active) | 0.736 µM (active) | 0.804 µM (active) | 1.46 µM (inactive) | 0.368 µM (active) | 1.76 µM (inactive) | 0.389 µM (active) | 0.796 µM (active) | 1.42 µM (inactive)
COc1ccc2c(CCN)c(C(=O)O)[nH]c2c1 | > 100 µM (inactive) | > 100 µM (inactive) | > 100 µM (inactive) | > 100 µM (inactive) | > 100 µM (inactive) | > 100 µM (inactive) | > 100 µM (inactive) | > 100 µM (inactive) | > 100 µM (inactive) | > 100 µM (inactive) | > 100 µM (inactive) | > 100 µM (inactive) | > 100 µM (inactive) | > 100 µM (inactive) | > 100 µM (inactive) | > 100 µM (inactive) | > 100 µM (inactive) | > 100 µM (inactive) | > 100 µM (inactive) | > 100 µM (inactive)
Cc1cccc2c(N)c3cccc(C(=O)NCC[N+](C)(C)Cc4c([N+](=O)[O-])ncn4C)c3nc12 | 29 µM (inactive) |  | > 66.1 µM (inactive) | 6.73 µM (inactive) | 31.4 µM (inactive) | 6.93 µM (inactive) | 46.8 µM (inactive) | 29.9 µM (inactive) | 38.5 µM (inactive) | 3.78 µM (inactive) | > 48.2 µM (inactive) | 17.5 µM (inactive) | 10.8 µM (inactive) | 11.5 µM (inactive) | 31.2 µM (inactive) | 41.8 µM (inactive) | 56.2 µM (inactive) | 26.1 µM (inactive) | 47.1 µM (inactive) | 40.6 µM (inactive)
COc1cc(/C=C/c2nc(N)nnc2C)cc(OC)c1OC | 10.9 µM (inactive) | 13.8 µM (inactive) | 18.1 µM (inactive) | 9.86 µM (inactive) | 14.1 µM (inactive) | > 70 µM (inactive) | > 57 µM (inactive) | 18.4 µM (inactive) | > 84.1 µM (inactive) | 20.3 µM (inactive) | 27.9 µM (inactive) | 13.9 µM (inactive) | 15.5 µM (inactive) |  | 11.9 µM (inactive) |  | > 43.8 µM (inactive) | 14.1 µM (inactive) | 35.2 µM (inactive) | 16.6 µM (inactive)
C/C=C\C(CC(=O)O)CN1CCC2=C(C1)C(S(=O)(=O)C(F)(F)F)c1ccccc12 (configuration not stated) | > 100 µM (inactive) | > 100 µM (inactive) | > 100 µM (inactive) | > 100 µM (inactive) | > 100 µM (inactive) |  | > 100 µM (inactive) | > 100 µM (inactive) | > 100 µM (inactive) | > 100 µM (inactive) | > 100 µM (inactive) | > 100 µM (inactive) | > 100 µM (inactive) |  | > 100 µM (inactive) | > 100 µM (inactive) |  | > 100 µM (inactive) | > 100 µM (inactive) | > 100 µM (inactive)
N=C(c1cccs1)C1(N2CCCCC2)CCCCC1 | 17.6 µM (inactive) | 15.7 µM (inactive) | 20.9 µM (inactive) | 14.1 µM (inactive) | 16.5 µM (inactive) | 33.8 µM (inactive) | 15.8 µM (inactive) | 16.4 µM (inactive) | 16.6 µM (inactive) | 27.7 µM (inactive) | 20.5 µM (inactive) | 24.3 µM (inactive) | 16.9 µM (inactive) |  | 57.4 µM (inactive) | 15.3 µM (inactive) | 17.3 µM (inactive) |  | 49.5 µM (inactive) | 20.8 µM (inactive)
